# From patent US20040229960A1, “Compositions and methods of administering tubulin binding agents for the treatment of ocular diseases” (priority 2001, published 2004)
# Legend:
# [1] = Primary ocular irritation, sub-Tenon's injection; format: in vivo, rabbits; conditions: for Ocular irritation vs negative control eyes: two 0.1 ml sub-Tenon's injections, 24-72 h
# Method: The test article, CA4P, was evaluated for primary ocular irritation. Two 0.1 ml injections of the appropriate CA4P concentration (0.1, 1.0, 10 and 100 mg/ml) were injected into the sub-Tenon's space of the right eye of two rabbits. A 0.2 ml portion of buffered saline solution was injected into the sub-Tenon's space of the left eyes to serve as a negative control. Ocular reactions were evaluated at 24, 48 and 72 hours after the sample instillation. On day 3, rabbits were euthanized and eyes were removed. The specimens were fixed and embedded, and histology was performed. Histopathologic changes in the eye tissues were recorded with an emphasis placed on examination of changes in the sub-Tenon's space.
# [2] = Biodistribution of 14C-CA4P following subconjunctival injection; format: in vivo, New Zealand rabbits
# Method: (§1) ^14C-CA4P (OXiGENE Inc., Watertown, Mass.) was resuspended in 100 ul volume of saline solution and injected with a 30 G needle into the right eyes of anesthesized male New Zealand rabbits (4 months old, 1.8-2.5 kg, n=3 per sample). Three different concentrations of ^14C-CA4P were tested (1, 10, 100 mg/ml) corresponding to doses of 1, 5, and 5 uCi of applied radioactivity respectively. A blank control group was also included. Rabbits were anaesthetized at 1, 6, 24, and 48 hours for blood sampling. After blood collection, the animals were euthanized by Phenobarbital injection and the treated right eyes were removed from all test animals. Ocular tissue samples were dissected from the cornea, aqueous humor, vitreous humor, choroid, or retina, placed in 20-mi glass scintillation vials, vortexed, and incubated for 24 hrs with 500 ul digesting fluid. Plasma was separated from whole blood by centrifugation (1,800 g for 10 minutes). Both ocular tissue samples and plasma were incubated at room temperature with 16 ml of Hionic Fluor™ scintillation fluid for a period of 24 hours prior to radioactivity counting. Each sample was counted for 5 minutes in a Betamatic V counter (Bio-Tek Kontron Instruments, St Quentin en Yvelines, France). The conversion of counts per minute (“cpm”) into disintegrations per minute (“dpm”) was performed automatically by the beta-counter, using calibration curves obtained from ^14C-standards and quenching curves from the respective blank matrices spiked with ^14C-standards. The concentration of drug was determined according to nanogram equivalents of CA4P (ng-Eq/g of tissue) which was calculated from the measured dpm value, the weight of the tissue specimen, and the specific activity of the drug (0.37 mCi/mg), followed by subtraction of the corresponding background value from control eye tissue. A tissue concentration of 1 uM CA4P is equal to […] tissue.
# Subconjuctival injections were administered at doses of 0.1, 1, 10, and 100 mg/ml. ^14C-CA4P solutions were formulated with 0.24% 10N KOH and 0.01% Benzalkonium chloride and injected in a volume of 100 ul. Animals were treated at an applied dose of 5 uCi with a single subconjunctival injection in right eyes. After delivery, the eye was gently held closed for 2-5 seconds.
# [3] = Biodistribution of 14C-CA4P following periocular injection; format: in vivo, New Zealand rabbits
# Method: as §1
# [4] = tested on: ocular neovascularization; assay: LHP-induced ocular neovascularization, intravenous treatment; format: in vivo, rabbit; conditions: 40 mg/kg i.v. once a day for five days; eyes examined seven days later
# Method: To simulate pathogenic ocular angiogenesis, ocular neovascularization was induced by administration of lipid hydroperoxide (LHP) by intra-corneal injection at a dosage of 30 μg to rabbit eyes. Seven to 14 days later, ocular vessels formed in the injected eyes due to LHP insult. The subjects were divided into two groups; those of one group were given combretastatin A4 disodium phosphate by intravenous administration at a dosage of 40 mg/kg once a day for five days, while a vehicle without combretastatin A4 disodium phosphate was administered to the other group by i.v. administration as a dosage of water for the same time period. The eyes of both groups were examined seven days later.
# [5] = tested on: oxygen-induced retinal neovascularization; assay: Murine model of oxygen-induced retinal neovascularization (ROP); format: in vivo; conditions: neonatal mouse treated upon removal from hyperoxic conditions
# From the text: The inner retina of the mammalian eye receives oxygen from the superficial retinal capillary bed. This capillary bed is located beneath the inner limiting membrane which serves as the interface between the inner retina and the outer avascular vitreous. The pathology of retinal neovascularization or retinopathy arises from ischemia-induced growth of neovasculature beyond the retinal inner limiting membrane and into the vitreous, causing severe loss of vision and frequently leading to retinal detachment. […] In this model neonatal mice are exposed to sustained hyperoxic conditions (75% oxygen for 7 days) that inhibit the development of the superficial retinal capillary bed. When a mouse pup is removed from the pure oxygen environment and placed in the relative hypoxia of environmental oxygen, the underdeveloped superficial retinal capillary bed is unable to deliver sufficient quantities of oxygen to the retina. […]
# It is expected that the treatment of a neonatal mouse with CA4P immediately upon its removal from hyperoxic conditions would be an effective treatment method for ROP. Retinal neovascularization can be quantified by counting the number chemically stained nuclei of penetrating endothelial cells in retinal tissue section of treated and untreated eyes according to existing methods (Majka et al., Invest. Ophthalmol. Vis. Sci. 2001, 42: 210-15).
# [6] = tested on: corneal neovascularization; assay: LHP-induced rabbit corneal neovascularization model, IP treatment; format: in vivo, New Zealand rabbits; conditions: late intervention, 50 mg/kg IP from Day 10 (Group 4)
structure (smiles),measurement,setting,value
"COc1ccc(/C=C\c2cc(OC)c(OC)c(OC)c2)cc1OP(=O)([O-])[O-].[Na+].[Na+] [CA4P, combretastatin A4 disodium phosphate]",Ocular irritation vs negative control eyes,[1]; 0.1 and 1.0 mg/ml,no irritation was observed
same,Ocular irritation vs negative control eyes,[1]; 10 and 100 mg/ml,Slight irritation was observed
same,Irritation (Draize Scores),"[1]; Sub-Tenon's, 0-10 mg",No Irritation
same,Cmax,"[2]; choroid, 0.1 mg/ml subconjunctival",2.3 µM
same,Cmax,"[2]; choroid, 1 mg/ml subconjunctival",1.9 µM
same,Cmax,"[2]; choroid, 10 mg/ml subconjunctival",188 µM
same,Cmax,"[2]; choroid, 100 mg/ml subconjunctival",908 µM
same,Concentration of drug delivered,"[2]; cornea, retina and choroid, 100, 10 and 1 mg/ml, subconjunctival",> 1 µM
same,Cmax,"[2]; cornea, 0.1 mg/ml subconjunctival",1.5 µM
same,Cmax,"[2]; cornea, 1 mg/ml subconjunctival",13 µM
same,Cmax,"[2]; cornea, 10 mg/ml subconjunctival",143 µM
same,Cmax,"[2]; cornea, 100 mg/ml subconjunctival",761 µM
same,Cmax,"[2]; plasma, 0.1 mg/ml subconjunctival",0.017 µM
same,Cmax,"[2]; plasma, 1 mg/ml subconjunctival",0.025 µM
same,Cmax,"[2]; plasma, 10 mg/ml subconjunctival",0.9 µM
same,Cmax,"[2]; plasma, 100 mg/ml subconjunctival",8 µM
same,Cmax,"[2]; retina, 0.1 mg/ml subconjunctival",0.13 µM
same,Cmax,"[2]; retina, 1 mg/ml subconjunctival",1.7 µM
same,Cmax,"[2]; retina, 10 mg/ml subconjunctival",39.6 µM
same,Cmax,"[2]; retina, 100 mg/ml subconjunctival",174 µM
same,Time of highest concentrations of drug in the eye,[2]; subconjunctival injection,within the first hour
same,Cmax,"[2]; vitreous, 0.1 mg/ml subconjunctival",0.005 µM
same,Cmax,"[2]; vitreous, 1 mg/ml subconjunctival",0.02 µM
same,Cmax,"[2]; vitreous, 10 mg/ml subconjunctival",2.1 µM
same,Cmax,"[2]; vitreous, 100 mg/ml subconjunctival",15.7 µM
same,Cmax,"[3]; choroid, 1 mg/ml periocular",14.3 µM
same,Cmax,"[3]; choroid, 10 mg/ml periocular",74.5 µM
same,Cmax,"[3]; choroid, 100 mg/ml periocular",1040 µM
same,Time of highest concentrations of drug in the eye,[3]; periocular injection,within the first hour
same,Cmax,"[3]; plasma, 1 mg/ml periocular",0.07 µM
same,Cmax,"[3]; plasma, 10 mg/ml periocular",0.79 µM
same,Cmax,"[3]; plasma, 100 mg/ml periocular",12.3 µM
same,Concentration of drug delivered,"[3]; retina and choroid, all administered doses, periocular",> 1 µM
same,Cmax,"[3]; retina, 1 mg/ml periocular",4.4 µM
same,Cmax,"[3]; retina, 10 mg/ml periocular",54 µM
same,Cmax,"[3]; retina, 100 mg/ml periocular",169 µM
same,Cmax,"[3]; sclera, 1 mg/ml periocular",18 µM
same,Cmax,"[3]; sclera, 10 mg/ml periocular",280 µM
same,Cmax,"[3]; sclera, 100 mg/ml periocular",3370 µM
same,Cmax,"[3]; vitreous, 1 mg/ml periocular",0.03 µM
same,Cmax,"[3]; vitreous, 10 mg/ml periocular",0.34 µM
same,Cmax,"[3]; vitreous, 100 mg/ml periocular",3.35 µM
same,Reduction of vessels,[4],≥ 40%
same,Number of nuclei penetrating the inner limiting membrane,[5],significantly reduced
same,Vessel Length on Day 24,[6],1.4 ± 0.46 mm
